Consider 14 compounds from patent publication US20230020329A1, “Annelated 9-hydroxy-1,8-dioxo-1,3,4,8-tetrahydro-2H-pyrido[1,2-a]pyrazine-7-carboxamides as HIV integrase inhibitors, methods of preparation and application thereof” (priority 2019, published 2023).

For data set [1], the system named is HIV. The settings on record: depending on the method of analysis; read-out: Inhibitory activity EC50 (literature); cited from earlier work.
Data set [2] deals with HIV-1 (IIIB strain). The experiment in a line: Anti-HIV cytoprotection assay (XTT), HIV-1 IIIB in CEM-SS cells. It counts as cell-based. The settings on record: CEM-SS cell line, read-out: Inhibitory activity (EC50) against HIV-1 (IIIB strain). The essentials:
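CEM-SS cells infected with a pre-titrated virus dose killing 85–95% of cells by day 6; protection from HIV-induced death read by XTT formazan. Compounds screened in triplicate at 30 and 10 nM, actives retested at 2 nM; AZT six-concentration curve on each plate as positive control.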

Data set [3] can be described thus: Thermodynamic (shake-flask) solubility. It counts as physicochemical. The settings on record: for solubility at 24 h: thermodynamic from solid. As for the experimental part:
The test compound of general formula 1 or 2 (2 mg) was weighed into a glass vial. The pION universal buffer (0.5 ml) with pH 7.4 or deionized water was added to appropriate vials. The vials were tightly closed with a lid, placed on a rotating shaker, and incubated for 24 hours to balance the solution and the solid phase at the saturation point. Each resulting solution (200 μl) was taken (in duplicate) from the vials, placed in a 96-well MultiScreen Solubility Filter Plate (Millipore), and filtered using vacuum ([…]) into a polypropylene plate with a U-shaped bottom. If necessary, the filtrates were diluted with an appropriate buffer (water). Then, 120 μl of the filtarate (or a diluted filtrate) was transferred to a 96-well plate with a UV-transparent bottom and 60 μl/well of acetonitrile and 20 μl/well of DMSO were added and thoroughly mixed with a multichannel pipette (acetonitrile and DMSO were added to obtain a required composition of calibration standards, as described below). The optical density of the resulting solutions was measured on a multifunction Infinite 200 PRO plate reader in the wavelength range from 240 nm to 400 nm in steps of 10 nm. The value of ODλ for solutions was assessed at a wavelength chosen for plotting a calibration curve.
The concentration of a substance in the solution after the solubility test was evaluated using a calibration curve. A stock solution in DMSO with a concentration of 2 mg/ml was prepared from a separate sample. […] The range of final concentrations of the calibration curve was 0.2; 0.1; 0.05; 0.025; 0.0125; 0.00625, and 0 mg/ml. Calibration solutions were prepared in a 96-well UV plate as follows: 20 μl of a 10-fold stock solution in DMSO, 60 μl of acetonitrile, and 120 μl of the appropriate buffer were added to the well and stirred. The optical density of the resulting solutions was measured on a multifunction Infinite 200 PRO plate reader in the wavelength range from 240 nm to 400 nm with a step of 10 nm. The optimal wavelength typically corresponding to the absorption maximum was chosen, and a linear dependence of OD at a given wavelength on the concentration of the compound was obtained.
The concentration of the compound in the filtrate after the solubility test was calculated according to the formula:
shake-flask solubility=(ODλfiltrate−ODλblank)/(slope×1.67×filtrate dilution)
wherein slope means the slope of the calibration curve; 1.67 is the filtrate acetonitrile+DMSO dilution ratio; filtrate dilution is an additional dilution of the filtrate, if applicable.

The subject of data set [4] is HIV-1 (NL4.3 strain) carrying the GFP reporter gene (NL4.3-GFP). The experiment in a line: HIV-1 NL4.3-GFP infection of SupT1 cells. It counts as cell-based. To be noted: Human immunodeficiency virus 1, SUP-T1, read-out: Inhibitory activity (EC50) of HIV-1 (NL4.3 strain) carrying the GFP reporter gene. As for the experimental part: 6. Inhibitory Activity of HIV-1 (NL4.3 Strain) Carrying the GFP Reporter Gene (NL4.3-GFP) in the SuPT1 Cell Line.
The evaluation was done by RetroVirox Inc. (San Diego, Calif., USA). SupT1 cells were infected with the HIV NL4.3 strain carrying the green fluorescent protein gene (NL4.3-GFP). The virus sample was produced by transfection of 293T cells with proviral DNA. The sample was frozen 48 hours after transfection and stored until use. To enhance the efficiency of infection, a suspension of SupT1 cells was precipitated from the infectious mixture by centrifugation. Test substances were added to the cells immediately before adding the virus. After 2 hours of incubation, the infectious mixture was replaced with a fresh culture medium containing test samples. The effectiveness of the infection was determined after 45 hours by counting the percentage of fluorescent cells in comparison with uninfected cell cultures. The cytotoxicity of the test compounds was determined in parallel on the same, but not infected, SupT1 cell line using the XTT reagent. Serial tenfold dilutions of the samples (starting from 10 μM when determining antiviral activity or from 100 μM for determining cytotoxicity). As a negative control, 0.1% DMSO was used. The values of EC50 were calculated. The quality of the tests was determined using the following controls: signal-to-noise ratio, integrase inhibitor raltegravir (1 μM), and test reproducibility.

Setting [5] is: Human immunodeficiency virus 1, IIIB, CEM-SS.
Where [6] appears, read: aqueous buffer, pION universal buffer pH 7.4, 24 h, read-out: Solubility, pH 7.4, value.
[7] abbreviates: deionized water, 24 h, read-out: Solubility, water, value.
The mark [8] stands for this setting: deionized water, water, read-out: Solubility in water.

SMILES strings stand for the structures. pEC50: −log10 of the molar value. ≈ marks a conversion by molar mass, not a printed value. Read-outs that look alike come from different tables or passages of the source.

On to `C[C@@H]1CCO[C@H]2Cn3cc(C(=O)NCc4ccc(F)cc4F)c(=O)c(O)c3C(=O)N12` [DTG, Dolutegravir], for which, in data set [1], the pEC50 was 8.13 to 8.96.

For `C[C@H]1CO[C@@H]2Cn3cc(C(=O)NCc4c(F)cncc4F)c(=O)c(O)c3C(=O)N12` [Compound 1.1.24, (3S,11aR)-6-hydroxy-N-[(3,5-difluoropyridin-4-yl)methyl]-3-methyl-5,7-dioxo-2,3,5,7,11,11a-hexahydro[1,3]oxazolo[3,2-a]pyrido[1,2-d]pyrazine-8-carboxamide], in data set [2] (setting [5]), the pEC50 is 8.58. The solubility at 24 h in data set [3] (setting [6]) stood at 380 µg/mL (≈ 935 µM); in data set [3] (setting [7]), 347 µg/mL (≈ 854 µM).

For `C[C@H]1CO[C@@H]2Cn3cc(C(=O)NCc4nc5ccccc5s4)c(=O)c(O)c3C(=O)N12` [Compound 1.1.37, (3S,11aR)-N-(1,3-benzothiazol-2-ylmethyl)-6-hydroxy-3-methyl-5,7-dioxo-2,3,5,7,11,11a-hexahydro[1,3]oxazolo[3,2-a]pyrido[1,2-d]pyrazine-8-carboxamide], the pEC50 in data set [2] (setting [5]) is 8.71. The solubility at 24 h in data set [3] (setting [6]) and in data set [3] (setting [7]) was 21 µg/mL (≈ 49.2 µM) throughout.

Regarding `C[C@@H]1CCO[C@H]2Cn3cc(C(=O)NCc4ccc(F)nc4F)c(=O)c(O)c3C(=O)N12` [Compound 1.2.1, (4R,12aS)-7-hydroxy-N-[(2,6-difluoropyridin-3-yl)methyl]-4-methyl-6,8-dioxo-3,4,6,8,12,12a-hexahydro-2H-pyrido[1′,2′:4,5]pyrazino[2,1-b][1,3]oxazine-9-carboxamide], in data set [2] (setting [5]), the negative-log EC50 (pEC50) is 8.29. The solubility at 24 h in data set [3] (setting [6]) was 80 µg/mL (≈ 190 µM); in data set [3] (setting [7]), 57 µg/mL (≈ 136 µM).

On to `C[C@H]1CO[C@@H]2Cn3cc(C(=O)NCc4ccc(F)nc4F)c(=O)c([O-])c3C(=O)N12.[Na+]` [Compound 1.1.20, Sodium (3S,11aR)-8-({[(2,6-difluoropyridin-3-yl)methyl]amino}carbonyl)-3-methyl-5,7-dioxo-2,3,5,7,11,11a-hexahydro[1,3]oxazolo[3,2-a]pyrido[1,2-d]pyrazin-6-olate], for which, in data set [2], the pEC50 was 8.32. Moreover, the solubility at 24 h in data set [3] (setting [6]) was 1680 µg/mL; in data set [3] (setting [8]), 2680 µg/mL. Further, in data set [3] (deionized water, 24 h), the “Solubility, water, value” worked out at 2679 µg/mL.

As for `C[C@H]1CO[C@@H]2Cn3cc(C(=O)NCc4ccncc4F)c(=O)c(O)c3C(=O)N12` [Compound 1.1.23, (3S,11aR)-6-hydroxy-3-methyl-N-[(3-fluoropyridin-4-yl)methyl]-5,7-dioxo-2,3,5,7,11,11a-hexahydro[1,3]oxazolo[3,2-a]pyrido[1,2-d]pyrazine-8-carboxamide], the pEC50 in data set [2] (setting [5]) was 7.52 to 8.00. For the same compound, the solubility at 24 h in data set [3] (setting [6]) turned out to be 91 µg/mL (≈ 234 µM); in data set [3] (setting [7]), 78 µg/mL (≈ 201 µM).

For `Cc1cc(CNC(=O)c2cn3c(c(O)c2=O)C(=O)N2[C@@H](C)CO[C@@H]2C3)c2ccccc2n1` [Compound 1.1.51, (3S,11aR)-6-hydroxy-3-methyl-N-(2-methylquinolin-4-ylmethyl)-5,7-dioxo-2,3,5,7,11,11a-hexahydro[1,3]oxazolo[3,2-a]pyrido[1,2-d]pyrazine-8-carboxamide], the pEC50 in data set [2] (setting [5]) was 8.00 to 8.70. Moreover, the solubility at 24 h in data set [3] (setting [6]) is 8 µg/mL (≈ 18.4 µM); in data set [3] (setting [7]), 31 µg/mL (≈ 71.4 µM).

As for `C[C@H]1CO[C@@H]2Cn3cc(C(=O)NCc4cccc5cccnc45)c(=O)c(O)c3C(=O)N12` [Compound 1.1.54, (3S,11aR)-6-hydroxy-3-methyl-N-(quinolin-8-ylmethyl)-5,7-dioxo-2,3,5,7,11,11a-hexahydro[1,3]oxazolo[3,2-a]pyrido[1,2-d]pyrazine-8-carboxamide], in data set [2] (setting [5]), the pEC50 was 8.66. The values for the solubility at 24 h in data set [3] (setting [6]) and in data set [3] (setting [7]) were 6 µg/mL (≈ 14.3 µM) and 10 µg/mL (≈ 23.8 µM), respectively.

Regarding `C[C@H]1CO[C@@H]2Cn3cc(C(=O)NCc4nccc5ccccc45)c(=O)c(O)c3C(=O)N12` [Compound 1.1.55, (3S,11aR)-6-hydroxy-N-(isoquinolin-1-ylmethyl)-3-methyl-5,7-dioxo-2,3,5,7,11,11a-hexahydro[1,3]oxazolo[3,2-a]pyrido[1,2-d]pyrazine-8-carboxamide], the results for the pEC50 in data set [2] (setting [5]) and in data set [4] were 8.00 to 8.70 and 7.84, respectively.

On to `C[C@H]1CO[C@@H]2Cn3cc(C(=O)NCc4ccc5nonc5c4)c(=O)c(O)c3C(=O)N12` [Compound 1.1.48, (3S,11aR)-N-(2,1,3-benzoxadiazol-5-ylmethyl)-6-hydroxy-3-methyl-5,7-dioxo-2,3,5,7,11,11a-hexahydro[1,3]oxazolo[3,2-a]pyrido[1,2-d]pyrazine-8-carboxamide], for which, in data set [2] (setting [5]), the pEC50 was 9.37. In addition, the values for the solubility at 24 h in data set [3] (setting [6]) and in data set [3] (setting [8]) were 3.2 µg/mL (≈ 7.78 µM) and 2.85 µg/mL (≈ 6.93 µM), respectively. Further, the “Solubility, water, value” in data set [3] (deionized water, 24 h) worked out at 2.85 µg/mL (≈ 6.93 µM).

Regarding `C[C@H]1CO[C@@H]2Cn3cc(C(=O)NCc4ncccc4F)c(=O)c(O)c3C(=O)N12` [Compound 1.1.16, (3S,11aR)-6-hydroxy-3-methyl-N-[(3-fluoropyridin-2-yl)methyl]-5,7-dioxo-2,3,5,7,11,11a-hexahydro[1,3]oxazolo[3,2-a]pyrido[1,2-d]pyrazine-8-carboxamide], the pEC50 in data set [2] (setting [5]) is 7.52 to 8.00; in data set [4], 7.98.

With `C[C@H]1CO[C@@H]2Cn3cc(C(=O)NCc4cccs4)c(=O)c(O)c3C(=O)N12` [Compound 1.1.1, (3S,11aR)-6-hydroxy-3-methyl-5,7-dioxo-N-(2-thienylmethyl)-2,3,5,7,11,11a-hexahydro[1,3]oxazolo[3,2-a]pyrido[1,2-d]pyrazine-8-carboxamide], in data set [2] (setting [5]), the pEC50 is 8.84. The solubility at 24 h in data set [3] (setting [6]) was found to be 24 µg/mL (≈ 63.9 µM); in data set [3] (setting [7]), 33 µg/mL (≈ 87.9 µM).

Turning to `Cc1cc2c(cc1CNC(=O)c1cn3c(c(O)c1=O)C(=O)N1[C@@H](C)CO[C@@H]1C3)OCCO2` [Compound 1.1.36, (3S,11aR)-6-hydroxy-3-methyl-N-[(7-methyl-2,3-dihydro-1,4-benzodioxin-6-yl)methyl]-5,7-dioxo-2,3,5,7,11,11a-hexahydro[1,3]oxazolo[3,2-a]pyrido[1,2-d]pyrazine-8-carboxamide], the pEC50 in data set [2] (setting [5]) is 7.52 to 8.00. Moreover, the values for the solubility at 24 h in data set [3] (setting [6]) and in data set [3] (setting [7]) were 70 µg/mL (≈ 159 µM) and 56 µg/mL (≈ 127 µM), respectively.

As to `C[C@H]1CO[C@@H]2Cn3cc(C(=O)NCc4nn(C)c(Cl)c4Cl)c(=O)c(O)c3C(=O)N12` [Compound 1.1.7, (3S,11aR)-6-hydroxy-N-[(4,5-dichloro-1-methyl-1H-pyrazol-3-yl)methyl]3-methyl-5,7-dioxo-2,3,5,7,11,11a-hexahydro[1,3]oxazolo[3,2-a]pyrido[1,2-d]pyrazine-8-carboxamide], the pEC50 in data set [2] (setting [5]) is 9.23. For the same compound, the solubility at 24 h in data set [3] (setting [6]) and in data set [3] (setting [7]) was 318 µg/mL (≈ 719 µM) in each case.
